# Experimental data as given in US12685725B2, “Pridopidine for the treatment of mitochondrial-associated diseases and disorders and endoplasmic reticulum (ER) stress” (PRILENIA NEUROTHERAPEUTICS LTD., priority 2019, dated 2026).
# Where two headings read alike, the source gives them in different places.
# What was measured:
# [1] = test system: YAC128 striatal neurons; conditions: 1 μM
# Experimental: Briefly, plasmid was diluted in TE (in mM: 1 Tris-HCl pH 7.3, 1 mM EDTA), followed by the addition of CaCl2 (in mM: 2.5 CaCl2 in 10 HEPES, pH 7.2). The DNA solution was carefully added to 2×HEBS (in mM: 12 dextrose, 50 HEPES, 10 KCl, 280 NaCl and 1.5 Na2HPO4·2H2O, pH 7.2) while bubbling air through the solution. The mixture was then incubated for 25 min at room temperature. The precipitates were added dropwise to the coverslips in Neurobasal medium and incubated for 80 minutes at 37° C. The DNA-Ca^2+-phosphate precipitates were dissolved with freshly-made dissolution medium (Neurobasal medium with 20 mM HEPES, pH 6.8) and incubated for 7 min at room temperature. The transfected neurons were then washed with Neurobasal medium and transferred back to their original dishes containing conditioned culture medium until DIV12.
# [2] = test system: Y128 neurons; conditions: 5 μM given 24 h before 0.1 mM H2O2 for 6 h, p=0.001
# Experimental: (§1) Mitochondrial membrane potential (Δψm) was assessed in cortical and striatal neurons using the positively changed fluorescent probe TMRM (tetramethylrhodamine methyl ester) (Thermo Fisher Sci., catalog no: T668) and in cortical/striatal co-cultures and lymphoblasts using an equivalent probe, TMRE (tetramethylrhodamine ethyl ester) (Abcam, catalog no. ab113852).
# (§2) TMRE assay: Primary neurons and lymphoblasts in suspension were cultured in 6-well plates.
# [3] = test system: HD human lymphoblasts; conditions: 24 h pre-treatment
# Experimental: The lymphoblasts were passaged 1:3 every five to six days. For conducting experiments, the lymphoblasts were collected and centrifuged at 145×g for 5 min. The cell pellet was resuspended in fresh growth medium. Lymphoblasts between passage number 5 and 20 were used in each experiment.
# as §1, §2
# [4] = test system: HD-NSCs; assay: cells; conditions: Homo sapiens, 24 h, read-out: reduction of the increase in H2O2 levels induced by complex III inhibition
# Experimental: NSCs were plated at 30,000 cells/well in 96-well assay plates coated with Geltex® for 24 h at 37° C. Afterwards, NSCs were incubated for another 24 h with 1 μM pridopidine. […] MitoPY1 fluorescence was obtained with a Microplate Spectrofluorometer Gemini EM (Molecular Devices, USA) using wavelength parameters described above. Basal levels were measured for 10-15 minutes followed by exposure to 3 μM myxothiazol (mitochondrial complex III inhibitor. Sigma-Aldrich, catalog no: T5580) and measured for an additional 30 minutes. The results were calculated as RFU per 30,000 cells.
# [5] = test system: Nrf2/ARE genes (Nqo1, Hmox1, GCLc) in HD lymphoblasts; conditions: 5 μM, 24 h
# Experimental: The qPCR was performed using the ABI Prism 7500 Sequence Detection System (Applied Biosystems). Each sample was run in triplicate. Gene expression was normalized to Rpl13a or UBC mRNA.
# [6] = test system: isolated YAC128 striatal mitochondria; conditions: wild-type mice, 30 mg/kg/day oral gavage 45 days
# Experimental: In isolated mitochondria, H2O2 levels were measured using the Amplex Red-horseradish peroxidase method. […] The homogenate was then dispensed into a 96-multiwell plate and fluorescence was measured in a spectrofluorometer microplate reader by excitation at 570 nm and emission at 585 nm every 30 s, for 20 min. After 10 min of basal reading, mitochondria were challenged with antimycin A (2 μM). Results were analyzed as time-dependent changes in fluorescence.
# 1.5-month-old WT and hemizygous YAC128 mice (males and females in equal proportion) were divided into four groups. […] Mice were divided 4 animals per cage enriched in corn-husk nesting material and paper rolls, each cage representing one individual experiment, for a total of 9 animals per group. Pridopidine was dissolved in deionized sterile water. Animals were weighed every week and the volume of treatment adjusted accordingly. Mice were behaviorally tested in rotarod immediately before commencing treatment and on the day before finishing treatment. Tests were conducted blindly at a set time during the day. Mice were sacrificed 24 h after administration of the final pridopidine dose, and mitochondria isolated from the striatum.
# The final homogenate was then centrifuged at 1,100×g for 2 min, at 4° C. […] Protein content of isolated mitochondria was quantified by Bio-Rad assay (Bio-Rad, catalog no. 5000006).
# [7] = test system: eIF2α phosphorylation in HEK 293 cells; conditions: for concentration of maximal effect on reducing eIF2α phosphorylation: cells expressing Htt96Q
# Experimental: Transfections of HEK 293 cells were carried out according to the calcium phosphate method. STHdh^Q7/7 cells are a murine striatal cell line with a stable knock-in of the full-length wild type (WT) human Htt containing a polyglutamine stretch of 7 glutamines (Trettel et al. 2000). […] No cell line used is listed as a commonly misidentified cell line. Cell lines were not authenticated. To reduce any risk of cross-contamination they were grown for a limited number of passages. Transient transfections of NIH 3T3 and STHdh^Q7/7 cells were performed using an MP-100 Microporator (Digital Bio) or ViaFect™ Transfection Reagent (Cat.No. E4981) (Promega), according to the manufacturer's protocols.
# Cells were lysed in PBS containing 1% Triton X-100, 0.5% sodium deoxycholate with protease inhibitors and centrifuged to pellet insoluble aggregates, debris and nuclei. Phosphatase inhibitor cocktail 2 and 3 and 10 mM […] phosphate were added to the lysis buffer to inhibit phosphatases for detection of phosphorylated proteins. Supernatants were separated from pellets and incubated in loading buffer for 5 min at 100° C., pellets were incubated for 10 min at 100° C. After SDS-PAGE and transfer to nitrocellulose membrane, blocking was done in 5% low-fat milk and 0.1% Tween-20 in PBS for 1 h. Incubation with the primary antibody was overnight at 4° C. and after three washes in 0.1% Tween-20 in PBS, incubation with the appropriate secondary antibody was for 1 h at room temperature. After washing, enhanced chemiluminescence assay was performed and the membrane was exposed and quantified in a Bio-Rad ChemiDocXRS Imaging System (Bio-Rad, Hercules, CA).
smiles,measurement,setting,value
"CCCN1CCC(c2cccc(S(C)(=O)=O)c2)CC1 [Pridopidine, 4-[3-(methylsulfonyl)phenyl]-1-propyl-piperidine]",velocity of motile mitochondria,"[1]; YAC128 neurons, p<0.05",This decrease was ameliorated
same,proportion of motile mitochondria,"[1]; YAC128 striatal neurons, p=0.0286",significantly increases the proportion of motile mitochondria
same,H2O2-induced loss of MMP (TMRE),[2],completely reverts this H2O2-induced loss of MMP
same,MMP (TMRE signal) after H2O2,"[3]; HD human lymphoblasts, 5 μM, then H2O2 6 h",significant rescue effect
same,restoration of membrane potential,"[3]; human lymphoblasts, 10 μM, then 0.1 mM H2O2 6 h, p=0.1389",less efficacious and shows less restoration of membrane potential
same,concentration of maximal effect on MMP (bell-shaped dose-response),"[3]; human lymphoblasts, then 0.1 mM H2O2 6 h",5 µM
same,inhibition at 1 µM,[4],~42%
same,GCLc expression (mRNA),[5],shows a trend towards upregulation
same,expression of Nqo1 (mRNA),[5]; p=0.0010,significantly upregulates
same,expression of Hmox1 (mRNA),[5]; p=0.0308,significantly upregulates
same,mitochondrial H2O2 levels,[6],does not affect
same,reduction of eIF2α-phosphorylation levels compared to the untreated control,"[7]; HEK293 cells expressing Htt96Q, 24 h, dose-dependent 0 to 3 μM",3.6 fold
same,phosphorylation of eIF2α,"[7]; Htt96Q-expressing cells, high doses of 30 and 150 μM",no effect
same,concentration of maximal effect on reducing eIF2α phosphorylation,[7]; after 8 hours,3 µM
same,concentration of maximal effect on reducing eIF2α phosphorylation,[7]; after 24 hours,3 µM
same,eIF2α phosphorylation,[7]; cells expressing WT Htt20Q,unaffected by pridopidine treatment
same,TG-induced ER stress as measured by eIF2α-P,"[7]; cells expressing myc-Htt20Q, 2 μg/ml thapsigargin",down to the levels of untreated cells
